From patent publication US6465527B1, “Iodinated hydrocarbon pesticide” (priority 1999, dated 2002)

Experiments:
Assay type in all cases: in vivo
[1] = tested on: German cockroach, Blattella germanica (L.); experiment: Fumigant toxicity in sealed glass jar, German cockroach; details: 30-60 adult males
[2] = tested on: reniform nematode [Rotylenchulus reniformis]; experiment: Greenhouse nematicide test in cotton field soil, covered and uncovered pots (Experiment 6, FIGS. 1-4)
Text: FIGS. 2 and 3 illustrate the effectiveness of the diiodoethane and diiodopropane in eliminating the nematode (Rotylenchulus reniformis) from a soil sample. The “x” axis on the top row illustrates the quantity of iodinated hydrocarbon in milligrams per kilogram of soil. The next two rows below the “x” axis indicate the number of nematodes per 100 milliliters of soil, which is also indicated on the “y” axis. In FIG. 2, 1,2-diiodoethane was applied to the soil both in a covered state and an uncovered state. […] This is believed to be so because of the volatility of 1,2 diiodoethane, wherein the cover slows down the rate at which the compound evaporates into the atmosphere.
In this experiment, the pesticidal and herbicidal properties of volatile, low molecular weight, iodinated hydrocarbons were investigated. The relative nematicidal efficacy of iodomethane [C1], 1,2-diiodoethane [C2], 1,3-diiodopropane [C3] and 1,4-diiodobutane [C4] was studied in greenhouse experiments with soil from a cotton field infested with the reniform nematode [Rotylenchulus reniformis]. The chemicals were obtained from Aldrich, Milwaukee, U.S.A. Emulsifiable concentrates of the compounds were prepared by dilution in acetone containing an emulsogen.
For each chemical, an aqueous emulsion with 0.2% [w/w] of the compound was prepared and was applied to soil at rates of 2, 4, 6, 8, 10, and 12 mgs a.i./Kg soil. The treated soil was mixed and transferred to 1L capacity 10-cm diameter cylindrical pots. Pots with untreated soil [control] and with treated soil were placed on a greenhouse bench in a randomized complete block design. Each treatment was represented by 14 replications [pots], one half of which were left uncovered, and the other 7 were covered with polyethylene plastic bags [approx. 1 mil thickness] retained with a rubber around the pots. Soil samples for nematological analysis [salad bowl incubation technique] were collected 7-10 days after application of the materials. […] In covered pots, applications of the material were particularly effective resulting in 100% kill with the 10 and 12 mg rates. All dosages of C3 and C4 eliminated the nematode in covered pots. […] In a greenhouse experiment of similar design to the nematicide experiments, the C3 and C4 emulsions were applied at rates of 2-20 mgs a.i./Kg soil to a soil infested with crabgrass [Digitaria sanguinalis], purple nutsedge [Cyperus rotundus], Jimson weed [Datura stramonium] and a variety of other weed species. All pots were covered, and the number of weeds were counted 7, 14 and 30 days after application of the chemicals.

[3] = tested on: Meloidogyne arenaria, Pratylenchus brachyurus, and Paratrichodorus christiei; experiment: Nematodes in roots and soils at end of Experiment 5 (all nematodes); details: after eight weeks of growth
Method: (§1) In this experiment, the nematotoxic properties of ethylene diiodide were compared to that of methyl iodide. The nematicidal efficacies of iodomethane [IM] and ethylene diiodide [EDI] were compared in a greenhouse experiment using field soil infested with Meloidogyne arenaria, Pratylenchus brachyurus, and Paratrichodorus christiei.
(§2) Each compound was added to soil at rates of 100, 200, 300 and 400 mg s/kg of soil. The soil was potted and kept moist for two weeks when it was planted with ‘Brim’ soybean after taking samples for nematological analyses. After eight weeks of growth, the plants were removed from the pots and soil samples taken. Data was collected on weights of fresh roots and shoots, general appearance of roots [root condition index] and root gall formation by M. arenaria. All EDI rates eliminated M. arenaria juveniles [J2] and populations of the other nematodes in the preplant samples; IM reduced J2 numbers by 50-70%, eliminated P. christiei with the 400 mg rate, but had no effect on P. brachyurus. […] The general appearance of roots was improved by EDI at rates ≦300 mg, but MI had no effect on the variable. […] M. arenaria J2 populations in roots were reduced by 60-70% by MI treatments, but the compound had no effect on root populations of P. brachyurus. MI had no effect on J2 populations in the final soil samples, although it suppressed P. christiei, by 50-70%.

[4] = tested on: cyst [Heterodera glycines]; experiment: Greenhouse nematicide test, iodinated C1-C3 hydrocarbons (Experiment 4); details: 0.4 ml rate
Method: In this experiment, the nematicidal properties of low molecular weight iodinated hydrocarbons were investigated. The nematicidal properties of iodinated C1-C3 hydrocarbons were evaluated in greenhouse experiments with field soil infested with root-knot [Meloidogyne arenaria] and cyst [Heterodera glycines] nematodes. lodomethane, di-iodomethane, iodoethane, di-iodoethane, and 1-iodopropane were added to soil at rates of 0.1, 0.2 and 0.4 ml/kg soil.
The treated soil was kept moist for 10 days when soil samples were taken for nematode analysis and ‘Brim’ soybean [Glycine max] planted. Soybeans were allowed to grow for 8 weeks and then were removed from the soil to determine plant growth, root-knot indices and the number of galls generated by M arenaria. […] All compounds except 1-iodopropane increased fresh shoot weight when applied at ≧0.1 ml/kg soil.

Meloidogyne arenaria = experiment: Greenhouse nematicide test, iodomethane vs ethylene diiodide (Experiment 5)
Method: as §1, §2

Pratylenchus brachyurus = experiment: as above; details: rates 100-400 mg/kg of soil
Method: as §1, §2

[5] = tested on: Paratrichodorus christiei; experiment: as above; details: all rates (100-400 mg/kg of soil)
Method: as §1, §2

SMILES: ICCI [1,2-diiodoethane]
- % Mortality after 1 h exposure, German cockroach ([1]; 1 h exposure): 40%
- % Mortality after 24 h exposure, German cockroach ([1]; 24 h exposure): 10%
- Numbers of the nematode in soil in response to rates ([2]; 2-12 mgs a.i./Kg soil): declined linearly
- Kill of the nematode ([2]; covered pots, 10 and 12 mg rates): 100%
- Effectiveness covered versus uncovered at eliminating the nematodes (FIG. 2) ([2]; covered state and uncovered state): covered samples were more effective
- Nematodes in roots and soils at end of experiment [3]: no nematodes
- H. glycines J2 populations in soil [4]: eliminated
- M. arenaria juveniles [J2] in preplant samples (Meloidogyne arenaria; all rates (100, 200, 300, 400 mg/kg of soil)): eliminated
- Galls in roots of plants from treated soil (M. arenaria) (Meloidogyne arenaria; soybean after eight weeks): no galls
- P. brachyurus populations in preplant samples (Pratylenchus brachyurus): eliminated
- P. christiei populations in preplant samples [5]: eliminated
